{
  "source": "patent US20220332836A1",
  "about": "“A METHOD FOR PREVENTING HUMAN VIRUS ASSOCIATED DISORDERS IN PATIENTS” (NOVARTIS AG, priority 2019, published 2022)",
  "key": {"[1]": {"tested_on": "PBMC incubated with EBV supernatant", "test": "EBV regression assay with PBMC", "format": "cell-based, human", "experimental": "Buffy coats from six healthy volunteers (18-001 to 18-006) were received from Blutspendezentrum Bern. Peripheral blood mononuclear cells (PBMC) were isolated using LeucoSep tubes following manufacturer's instructions, counted with TC20 and adjusted in cell culture medium (Medium, buffers and reagents). All conditions (see Table 3-2) were run in five replicates in 96-well U-bottom plates and contained 2×10^5 cells/well. PBMC were incubated for 10-15 minutes at 37° C. before adding cell culture medium containing EBV-supernatant and transferrin (see Medium, buffers and reagents). […] Cell pellets were stained and analyzed by flow cytometry (FACS staining procedure).\nIn FIG. 1, the gating strategy is shown."}, "[2]": {"tested_on": "EBV-seronegative EBV-B cell/T cell co-cultures", "test": "EBV-B cell/T cell co-culture, EBV-seronegative donors", "format": "cell-based, human"}, "[3]": {"tested_on": "EBV-seropositive EBV-B cell/T cell co-cultures", "test": "EBV-B cell/T cell co-culture, EBV-seropositive donors"}, "human CD40": {"molecular_target": "T1, human CD40 (human, UniProt P25942 21-193, limits assumed)", "T1 construct": "also called tumor necrosis factor receptor superfamily member 5", "T1 sequence (P25942 21-193 limits assumed)": "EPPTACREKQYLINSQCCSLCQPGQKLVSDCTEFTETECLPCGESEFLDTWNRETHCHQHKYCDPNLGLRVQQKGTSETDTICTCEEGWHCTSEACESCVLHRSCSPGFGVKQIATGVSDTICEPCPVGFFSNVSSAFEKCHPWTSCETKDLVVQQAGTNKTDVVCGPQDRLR", "test": "method not stated"}, "[4]": {"tested_on": "NK cell-depleted PBMC cultures", "test": "EBV regression assay, complete or NK cell-depleted PBMC", "format": "cell-based, human", "details": "14 days", "source_text": "(§1) FIG. 16 provides CD3^+ T cell counts from the NK cell-depleted PBMC regression assay after 14 days of culture measured by flow cytometry. Antibodies (in μg/mL) and CsA (in μM) were given in combination with EBV supernatants (except the negative control=medium w/o EBV). Dotted horizontal line was set to the condition ‘medium+EBV’. Data are shown as mean+SEM (n=4).\nas §1, with “17” for “16”, “CD19^+ B cell counts from the PBMC regression assay after 14 days of culture measured by flow cytometry. Antibodies (in μg/mL) and CsA (in μM) were given in combination with EBV supernatants (except the negative control=medium w/o EBV). Dotted horizontal line was set to the condition ‘medium+EBV’. Data are shown as mean+SEM (n=4); and CD19^+ B” for “CD3^+ T”\nAll conditions except ‘medium w/o EBV’ were incubated with EBV supernatant and respective compound or antibodies. […] Looking at the CD19+ B cell proliferation (FIG. 3), there was an obvious increase in CD19+ B cell counts when PBMC were incubated with EBV supernatant compared to PBMC cultured with medium only (medium w/o EBV). […]"}, "[5]": {"details": "14 days, CsA 0.1, 1 μM, Belatacept 10, 50 μg/mL, CFZ533, hIgG1 10-200 μg/mL, vs medium+EBV"}, "[6]": {"details": "10-200 μg/mL, priming, recall, priming and recall, 11 days"}},
  "data": [
    {"molecule": "Belatacept: CTLA4-Ig fusion protein; blocks CD80/CD86 and thereby inhibits T cell costimulation", "values": [
      {"measurement": "CD3+ T cell counts", "setting": "[1]; [5]", "result": "to a lesser degree than with CsA"},
      {"measurement": "CD19+ B cell counts", "setting": "[1]; [5]", "result": "increase"},
      {"measurement": "T cell activity (resulting in over-growth of in vitro immortalized cells)", "setting": "[1]; EBV regression assay", "result": "reduced"},
      {"measurement": "CD4+ T cell proliferation, differences between the four doses", "setting": "[2]; 10, 50, 100 and 200 μg/mL", "result": "no evident differences"},
      {"measurement": "CD4+ T cell proliferation", "setting": "[2]; 10-200 μg/mL, all three conditions", "result": "reduced"},
      {"measurement": "CD3+ T cell proliferation", "setting": "[2]; [6]", "result": "reduced"},
      {"measurement": "CD8+ T cell proliferation", "setting": "[2]; 10 and 50 μg/mL, recall only and priming and recall", "result": "only a reducing effect"},
      {"measurement": "CD3+ T cell proliferation", "setting": "[2]; 100 and 200 μg/mL, priming and recall condition", "result": "only a reducing effect"},
      {"measurement": "CD3+ T cell proliferation", "setting": "[2]; 100 and 200 μg/mL, priming or recall only condition", "result": "only minor"},
      {"measurement": "CD8+ T cell proliferation", "setting": "[2]; 100 and 200 μg/mL, priming phase only", "result": "increased"},
      {"measurement": "CD3+ T cell proliferation, 10 and 50 μg/mL versus 100 and 200 μg/mL", "setting": "[2]; all three conditions", "result": "slightly stronger but not significant suppression pattern"},
      {"measurement": "CD3+ T cell proliferation", "setting": "[3]; [6]", "result": "reduced"},
      {"measurement": "CD4+ T cell proliferation", "setting": "[3]; [6]", "result": "reduced"},
      {"measurement": "CD3+ T cell proliferation", "setting": "[3]; 100 and 200 μg/mL", "result": "only an reducing effect on the T cell proliferation at the ‘priming and recall’ phase"},
      {"measurement": "CD4+ T cell proliferation", "setting": "[3]; 100 and 200 μg/mL, priming and recall phase", "result": "robust reducing effect"},
      {"measurement": "CD3+ T cell proliferation, 10 and 50 μg/mL versus 100 and 200 μg/mL", "setting": "[3]; all three conditions", "result": "slightly stronger but not significant suppression pattern"},
      {"measurement": "CD4+ T cell proliferation, 10 and 50 μg/mL versus 100 and 200 μg/mL", "setting": "[3]; all three conditions", "result": "slightly stronger but not significant suppression pattern"},
      {"measurement": "EBV-mediated T cell proliferation and IFNγ secretion in presence of EBV-B cells", "setting": "[3]; co-culture system, EBV-B cells sero-positive and sero-negative", "result": "reduced"}
    ]},
    {"molecule": "mAb1 (antibody, human IgG1, kappa, N297A, V domains shown, also called CFZ533; Iscalimab) VH: QVQLVESGGGVVQPGRSLRLSCAASGFTFSSYGMHWVRQAPGKGLEWVAVISYEESNRYHADSVKGRFTISRDNSKITLYLQMNSLRTEDTAVYYCARDGGIAAPGPDYWGQGTLVTVSS VL: DIVMTQSPLSLTVTPGEPASISCRSSQSLLYSNGYNYLDWYLQKPGQSPQVLISLGSNRASGVPDRFSGSGSGTDFTLKISRVEAEDVGVYYCMQARQTPFTFGPGTKVDIRR", "values": [
      {"measurement": "Kd", "setting": "human CD40", "result": 0.3, "unit": "nM"}
    ]},
    {"molecule": "HCD122: a depleting CD40 mAb as positive control (antibody, chains of the INN, looked up, V domains shown) VH: QVQLVESGGGVVQPGRSLRLSCAASGFTFSSYGMHWVRQAPGKGLEWVAVISYEESNRYHADSVKGRFTISRDNSKITLYLQMNSLRTEDTAVYYCARDGGIAAPGPDYWGQGTLVTVSS VL: DIVMTQSPLSLTVTPGEPASISCRSSQSLLYSNGYNYLDWYLQKPGQSPQVLISLGSNRASGVPDRFSGSGSGTDFTLKISRVEAEDVGVYYCMQARQTPFTFGPGTKVDIR", "values": [
      {"measurement": "CD19+ B cell counts", "setting": "[4]", "result": "did deplete B cells"}
    ]}
  ]
}
